Consider three molecules from patent publication US7563822B2, “Agents for the prevention or treatment of renal diseases” (Kissei Pharmaceutical Co., Ltd., priority 2002, dated 2009).

For one series, the system named is ICR mice. Briefly: Acute toxicity test, tail vein administration. Format: in vivo. The conditions noted are these: male ICR mice, 24 hours. The protocol: Male ICR mice aged 7 weeks (SLC) were divided into several groups consisting of 5 mice. […] The solution was administered through the tail vein at an infusion rate of 1 mL/minute. Observations were performed at constant interval, and the survival rate was judged for 24 hours.

Series [1] concerns Normal human mesangial cells. Description: Inhibitory effect on human FXa-induced human mesangial cell proliferation (DNA amount by fluorescence). The series is classed as cell-based. The conditions noted are these: for Fluorescence intensity: FXa 20 nM, 111 hours culture. On the procedure:
Normal human mesangial cells were seeded at 10000 cells/200 μL of Mesangial cell growth medium/well in 96-well plates, and cultured in CO2 incubator (37° C., O2:CO2=95:5). One day after seeding, cells were rinsed with Mesangial cell basal medium containing 0.5% bovine serum albumin (not containing growth factors), and then replaced the medium with Mesangial cell basal medium containing 0.5% bovine serum albumin (not containing growth factors) which was containing human activated coagulation factor X (hereinafter referred to as FXa; Calbiochem) and a test compound of certain concentrations, and cultured for 111 hours in CO2 incubator (37° C., O2:CO2=95:5). After cultivation, cells were rinsed with Hank's balanced salt solution at 250 μL/well, and frozen preservation of the cells at −30° C. was carried out until the measurement of the amount of DNAs for every plate. For measurement of the amount of DNAs, fluorescence intensity (measurement condition: excitation 480 nm; emission 520 nm) was estimated using Cell Proliferation Assay Kit (Molecular Probe). […] In addition, it is shown that * in the Table has a significant difference (p<0.05) compared with the group which was added FXa alone.

The test system of series [2] is db/db mice. Briefly: Inhibitory effect on development of diabetic nephropathy in db/db mice (urine albumin/creatinine ratio). Format: in vivo. Conditions: 100 mg/kg orally twice a day for 10 weeks. The protocol:
Six weeks old male db/db mice (20 individuals) and non-diabetic type db/+m mice (10 individuals) were used. db/db Mice were divided into two groups (each 10 individuals), a test compound suspended in a 0.5% methylcellulose solution was orally administrated at 100 mg/kg to one group (test compound group) twice a day. On the other hand, a 0.5% methylcellulose solution alone was orally administrated to another group (control group) and db/+m mice twice a day. After continuing administration for 10 weeks, urine collection was performed for each mouse using a metabolism cage for 24 hours. Insoluble substances in collected urine samples were removed by centrifugal separation. The urine albumin/creatinine ratio which can be obtained by rectifying the urine albumin concentration by the urine creatinine concentration was evaluated as the index of the urine protein excretion. In addition, the urine albumin/creatinine ratio was calculated based on the formula below. Urine albumin/creatinine ratio=Urine albumin concentration/Urine creatinine concentration Urine albumin concentration was measured using a Murine Microalbuminurea ELISA Kit (Exocell Icc.), and urine creatinine concentration was measured using a commercial kit for creatinine (Wako). […] In addition, it is shown that * in the Table has a significant difference (p<0.05) compared with control group.

Series [3] relates to db/db mice. Description: Inhibitory effect on hypercoagulable state in db/db mice (plasma TAT level). The series is classed as in vivo. Conditions: 100 mg/kg orally, one hour after administration. The protocol: Thirty two weeks old male db/db mice (11 individuals) and wild type +m/+m mice (6 individuals) were used. db/db Mice were divided into two groups, a 0.5% methylcellulose solution containing a test compound at 100 mg/kg was orally administrated to one group (test compound group, 6 individuals). On the other hand, a 0.5% methylcellulose solution alone was orally administrated to another group (control group, 5 individuals) and +m/+m mice. One hour after administration, mice were anesthetized with diethyl ether. […] Plasma thrombin-antithrombin III complex (TAT) level was measured using an EIA (enzyme immunoassay) kit (Dade behring). […] In addition, it is shown that * in the Table has a significant difference (p<0.05) compared with control group.

On to `CS(=O)(=O)c1ccccc1-c1ccc(CCNS(=O)(=O)c2cc(C(=N)N)ccc2O)c(OCC(=O)O)c1.Cl` [Compound 33, [4-[2-(5-Carbamimidoyl-2-hydroxybenzenesulfonylamino)-ethyl]-2′-methanesulfonoylbiphenyl-3-yloxy]acetic acidhydrochloride], for which the Number of death in the series on ICR mice (Method B: 100 mg/10 mL/kg) is 0/5. Further, the “Inhibition of human FXa-induced mesangial cell proliferation (in words)” value in series [1] (FXa-induced human mesangial cells) is “inhibited human FXa-induced mesangial cell proliferation concentration-dependently”. The Fluorescence intensity in series [1] (test compound 1 μM, FXa alone 227.0, no FXa 186.8) is given as 206.2; in series [1] (test compound 10 μM, * p<0.05 vs FXa alone (227.0)), 178.3*.

Turning to `CS(=O)(=O)c1ccccc1-c1ccc(CCNS(=O)(=O)c2cc(C(=N)NO)ccc2O)c(OCC(=O)O)c1` [Compound 47, [4-[2-[2-Hydroxy-5-(N-hydroxycarbamimidoyl)benzenesulfonylamino]ethyl]-2′-methanesulfonylbiphenyl-3-yloxy]acetic acid], the Number of death in the series with ICR mice (Method A: 50 mg/10 mL/kg) and in the series on ICR mice (Method B: 100 mg/10 mL/kg) was 0/5 in each case.

Consider `CCCCOC(=O)COc1cc(-c2ccccc2S(C)(=O)=O)ccc1CCNS(=O)(=O)c1cc(C(=N)NO)ccc1O.Cl` [Compound 48, n-Butyl [4-[2-[2-Hydroxy-5-(N-hydroxycarbamimidoyl)-benzenesulfonylamino]ethyl]-2′-methanesulfonylbiphenyl-3-yloxy]acetate hydrochloride], for which the “Inhibition of urine albumin excretion (in words)” value in the series on db/db mice [2] is on record as “inhibited urine albumin excretion significantly”. For the same molecule, the Urine albumin/creatinine ratio in the series with db/db mice [2] (24 hours urine, * p<0.05 vs control group (0.386)) is listed as 0.202*. For the same molecule, the “Effect on plasma TAT level / hypercoagulable state (in words)” value with db/db mice [3] was “decreased plasma TAT level significantly”. Further, the “Plasma thrombin-antithrombin III complex level” value with db/db mice [3] (* p<0.05 vs control group (69.25)) is 8.31*.
